Experiments:
Huh7 cells = test: EPO expression (ELISA of medium) from PB1-MinTK in Huh7 cells with CAR-containing plasmid, induction by CITCO; assay type: cell-based, human
Description: • Huh7 cells which are a human liver cell line • DPBS: without CaCl2, without MgCl2 (Gibco, 14190-094) • DMEM (Sigma, D6546) • FBS (Sigma, F9665) • Pen-Strep (Sigma, P4333) • Promega Fugene-HD (E2311) • TCPOBOP (Sigma, T2320) • CITCO (Cayman Chemicals Company, 16027) • pcDNA6 plasmid which contains the β-galactosidase gene used as internal control for transfection efficiency (Thermofisher, V22020) • mouse CAR expression plasmid from Jouan et al, 2016 (BioCat GmbH, EX-Z4288-M51-10-GC). This was used as Huh7 is CAR deficient. • β-galactosidase substrate solution (Thermofisher, 75707/75710) • Pierce BCA kit (23225) • LARII (Dual Luciferase Reporter 1000 assay system, Promega, E1980) • EPO ELISA kit (Abcam, ab119522) Method: Day 1 • Cells were seeded onto a 48 well plate at a density of 25,000 cells/300 μl Day 2 • On the day of transfection, DNA to be transfected (CAR plasmid/PB1-MinTK operably linked with luciferase or EPO/pcDNA6 plasmid for internal control) was diluted to a 100 ng/μl stock solution. Per 48 Well Transfection: • 45 ng of DNA (15 ng of each plasmid, pcDNA6, CAR and test plasmid) was mixed with 4.1 μl of Optimem medium. • 0.5 μl of Fusion HD was mixed with 4 μl of Optimem medium. • These 2 solutions were mixed and incubated at room temperature for 15 minutes. • The final solution was then added to the well drop wise. • 3 hrs after transfection, the inducer TCPOBOP was added to the appropriate wells at the indicated concentration. Day 3 • 24 hrs after induction the media was removed from the cells. • The cells were washed once in 300 μl of DPBS • Cells were lysed using 100 μl of passive lysis buffer and incubation with rocking for 15 minutes • The cell debris was pelleted by centrifugation of the plate at max speed in a benchtop centrifuge for 1 min • For luciferase, 10 μl sample was transferred into white 96-well plate and luminescence measured by injection of 50 μl of LARII substrate. • β-galactosidase activity was measured as per manufacturer's instructions (Mammalian β-Galactosidase Assay Kit, 75707/75710, Thermo Scientific) using 25 μl of lysate. 25 μl of lysate was transferred into a microplate well and mixed with 25 μl of β-galactosidase Assay Reagent, equilibrated to room temperature. The mixture was incubated at 37° C. for 30 min and absorbance measured at 405 nm. • Protein concentration was measured as per manufacturer's instructions (Pierce™ BCA Protein Assay Kit, 23225/23227, Thermo Scientific) using 25 μl of lysate. 25 μl of lysate was transferred into a microplate well and mixed with 200 μl of working solution. The mixture was incubated at 37° C. for 30 min, cooled to room temperature and then absorbance measured around 562 nm. The protein concentration was calculated with respect to protein standard curve prepared from assaying standards with known protein concentration.
Transfections with PB1-MinTk-EPO were performed as described above with the exception that EPO is secreted into the medium. Therefore, medium was collected, and EPO concentration measured as per manufacturer's instructions (ab119522 Erythropoietin (EPO) Human ELISA Kit, Abcam) using an ELISA assay. 50 μl of medium was transferred to a pre-washed microplate wells and mixed with 50 μl of 1× Biotin Conjugated Antibody. The mixture was incubated at room temperature for 1 hour. The wells were washed, 100 μl of Streptavadin-HRP was added and the plate was incubated at room temperature for 15 minutes. The wells were washed and then 100 μl of TMB Substrate Solution. The mixture was incubated at room temperature for 10 minutes. The enzyme reaction was stopped by addition of 100 μl of Stop Solution and absorbance was read at 450 nm. The EPO concentration was calculated with respect to EPO standard curve prepared from assaying standards with known EPO concentration.
The PB1-MinkTK promoter was then used to drive expression of the protein EPO, which is of therapeutic interest. […]

CD1 male mice = test: In vivo bioluminescence imaging of mice injected with AAV9 constructs, induction by phenobarbital; details: AAV9 via tail vein
Description: • Seed HEK 293-AAV cells in 15 cm plates. To be 70-80% confluent on the day of transfection • Final volume on each plate: 15 ml Day 2: Prepare Transfection Mix: • DNA mix/plate: pDG9 (Packaging plasmid for AAV9): 10.5 μg/pHGTI (Ad. Helper plasmid): 31.5 μg/Vector plasmid: 10.5 μg/Prepare in serum free DMEM/Optimem • Transfer mix/plate: PEI: 125 μl/Prepare in serum free DMEM/Optimem • Add DNA mix into transfection mix. Mix and leave at room temperature for 15-20 mins. • Add 3 ml of transfection mix to each plate drop-wise and gently distribute. Incubate for 24 h. Day 3: • Replace media with 15 ml DMEM supplemented with P/S and 2% FCS. Leave for 48 h. Day 5: • Collect supernatant and pool in 50 ml tubes, 25 ml each tube. Store at −20° C. • Collect cells: Add 5 ml of PBS to each plate→scrape and collect in 50 ml tubes. • To wash plates, add another 1 ml of PBS and collect. • Spin at 1500 rpm for 5 mins. • Remove supernatant and resuspend pelleted cells in 1 ml/plate TD lysis buffer→pool • Store at −80′C. Endonuclease Treatment Cells: • Freeze and thaw pellets 5 times→˜20 mins at 37° C. then ˜20 mins in dry ice (or −80° C.). • Add 25 μl/ml cells of 20% Deoxycholate (or 50 μl/ml of 10% Deoxycholate). • Add 8 μl/ml cells of benzonase. • Incubate at 37° C. for 30 mins. • Spin at 4 Krpm for 30 mins. • Filter supernatant using […] filters. • Store at 4° C. for up to 24 h. Supernatant: • Add 2.5 μl/25 ml supernatant of benzonase. • Add 50 μl/25 ml supernatant of MgSO4. • Incubate at 37° C. for 30 mins. • Spin at 4 Krpm for 30 mins. • Filter supernatant using […] filters. • Store at 4′C for up to 24 h. Hplc Purification • Place both lines in 20% ETOH→template→system wash • Put line A in PBS and line B in Glycine→template→system wash • Place the column in the machine→manual run→flowrate: 5 ml/min→Run for 25 ml or until the UV line is flat. • Prepare FACS tubes (10 for cells and more for supernatant): add 30 μl/tube Tris→put in the machine to collect vectors. • Place the waste lines in a separate tube to be able to run them again through the column. • Run samples (flowrate low, depending on how fast the system and how concentrated the sample is; for cells it is slower, for supernatant it is higher). • After running the waste through the column, wash with PBS→flowrate: 5 ml/min until the UV line is flat. • Set→fraction size: 1 ml; Flowrate: 1 ml/min; concentration % B: 100%→run. • Start collecting: Look for the peak. The peak indicates vector purification. Mark the tubes containing these vectors. • Save programme before exiting. • Wash with PBS→75 ml, 5 ml/min • Wash with Na3PO4 (to store the column in)→75 ml, 5 ml/min • Remove column and store at 4° C. • Wash the machine with PBS→template→system wash • Wash the machine with 20% ETOH→template→system wash • Put both lines in 20% ETOH and shut down • Add 2 L of PBS into a big bucket and put the Dialysis cassette (Side-A-Lyzer; Thermo scientific) to prime. • Collect the vectors from the marked FACS tubes using a syringe and needle and add into the dialysis cassette→remove excess air from the membrane, carefully place the rubber on top of the cassette and let it float in the PBS-containing bucket→leave over night at room temperature on a slow rotating rotor. Next Day: • Prime membrane by adding 5 ml PBS onto a centrifugal filter (Amico Ultra 15; MERCK)→spin for 5 mins at 4 Krpm • Remove excess PBS from inside the membrane. • Take vectors out from the cassette and load onto the membrane→spin for 5 mins at 4 Krpm • Wash the membrane with the vectors inside few times, then collect into 2 ml centrifuge tube filter 0.22 μM (Spin-X; COSTAR) • Spin for 3 mins at 13 Krpm. • Remove filter and aliquot: 1×100 μl (for injection), the rest in 10-2 μl aliquots. • Store in −80° C. • Virus quantification was performed using qRT-PCR with primers and probes for the luciferase gene. Mice Experiment […]

AXOL ARE-hepatocytes = test: Luciferase expression from PBREM promoters in AXOL ARE-hepatocytes, induction by CITCO; assay type: cell-based, human; details: 1 μM CITCO, readout 24 hrs after induction
Description: Axol Assay-Ready Expanded (ARE) Hepatocytes are primary human hepatocytes that have been expanded in vitro. Large batch sizes (up to 2000 vials) are available, ensuring a reliable, ready-to-use and consistent source of primary hepatocytes. ARE Hepatocytes express CYP enzymes, are metabolically functional, are polarized and can be infected by the Hepatitis C virus. AXOL ARE-hepatocytes express CAR negating the need to transfect with a CAR-expressing plasmid.
• AXOL assay-ready expanded (ARE) hepatocytes (Axol, ax3701) • ARE hepatocyte thawing medium (Axol, ax3705) • ARE maintenance medium (Axol, ax3710) • Virimer red transfection reagent (Lipocalyx, VR04-02-15) • CITCO, lucifierase, β-galactosidase and BCA kits as described above
ARE hepatocytes were cultured and transfected as described in the manufacturer's manual. 200,000 cells were seeded in 2 ml culture medium in collagen-coated 6 well plate. The cells were incubated for 4 h at 37° C. and 5% CO2 for sufficient adhesion. 200 μl of transfection mixture containing the DNA to be transfected (PB1-MinTK/PB1-CMV/PB1-SV40 operably linked with luciferase and β-galactosidase containing promoter) was added and the cells were incubated on an orbital shaker at 100 rpm for three hours at 37° C. and 5% CO2. 3 hrs after transfection CITCO was added to the appropriate wells. Cells were incubated under static conditions at 37° C. and 5% CO2 overnight and in the morning the medium was replaced with fresh ARE Hepatocyte Maintenance Medium. Readout was 24 hrs after induction. […]

Clc1ccc(-c2nc3sccn3c2C=NOCc2ccc(Cl)c(Cl)c2)cc1 [CITCO, 6-(4Chlorophenyl)imidazo[2,1-b][1,3]thiazole-5-carbaldehyde-O-(3,4-dichlorobenzyl)oxime, reference compound]
strength as inducer of CAR activity (Huh7 cells; 22% vs 40% of CMV-IE with PB1-MinTK): weaker inducer of CAR activity than TCPOBOP

CMV-MP: CMV minimal promoter driving EPO in pGL4.10, SEQ ID NO: 54 [reference compound]
change of EPO expression on addition of CITCO (Huh7 cells; 0.5 μM, 1 μM, 2 μM and 3 μM CITCO): does not change the EPO expression

B1: CMV-IE: strong viral CMV-IE comparative promoter, SEQ ID NO: 52 (nucleic acid)
DNA: GACATTGATTATTGACTAGTTATTAATAGTAATCAATTACGGGGTCATTAGTTCATAGCCCATATATGGAGTTCCGCGTTACATAACTTACGGTAAATGGCCCGCCTGGCTGACCGCCCAACGACCCCCGCCCATTGACGTCAATAATGACGTATGTTCCCATAGTAACGCCAATAGGGACTTTCCATTGACGTCAATGGGTGGAGTATTTACGGTAAACTGCCCACTTGGCAGTACATCAAGTGTATCATATGCCAAGTACGCCCCCTATTGACGTCAATGACGGTAAATGGCCCGCCTGGCATTATGCCCAGTACATGACCTTATGGGACTTTCCTACTTGGCAGTACATCTACGTATTAGTCATCGCTATTACCATGGTGATGCGGTTTTGGCAGTACATCAATGGGCGTGGATAGCGGTTTGACTCACGGGGATTTCCAAGTCTCCACCCCATTGACGTCAATGGGAGTTTGTTTTGGCACCAAAATCAACGGGACTTTCCAAAATGTCGTAACAACTCCGCCCCATTGACGCAAATGGGCGGTAGGCGTGTACGGTGGGAGGTCTATATAAGCAGAGCT
modifications: CMV-IE comparative promoter
tissue distribution of luciferase expression (CD1 male mice): expressing in almost all tissues of the mouse | induction of luciferase expression (AXOL ARE-hepatocytes): ~2 fold

From US12472269B2, “Liver-specific inducible promoters and methods of use thereof” (ASKBIO INC., priority 2019, dated 2025)
